Where two headings read alike, the source gives them in different places. Non-standard residues stand in square brackets, D forms with d. *: point of attachment. ACC = NC(=O)Cc1cc(=O)oc2cc(N*)ccc12; AMC = Cc1cc(=O)oc2cc(N*)ccc12; hSer = N[C@@H](CCO)C(=O)O; Boc = CC(C)(C)OC(=O)*
Experiments:
[1] = biological target: T1, human 20S proteasome, trypsin-like (β2) subunit (Homo sapiens, UniProt P49720+Q99436); assay: Kinetic parameters of substrate 1 with human 20S proteasome (allosteric fit); format: biochemical; details: SDS 0.01%, substrate 1
T1 construct: purchased Boston Biochem (Cambridge, MA, USA)
Method: For enzymatic studies, the human 20S proteasome, 26S proteasome, and 20S immunoproteasome were purchased from Boston Biochem (Cambridge, MA, USA). The 20S proteasome concentration for library deconvolution was in the nanomolar range, and this proteasome entity was used for the main study. Deconvolution of the peptide libraries was performed using the iterative solution method. Dimethyl sulfoxide (DMSO) was used as a solvent for preparation of the stock solution (5 mg/mL) for each lyophilized sub-library. This stock solution was diluted ten times using an assay buffer (50 mM Tris/HCl buffer (pH 8.2)) for the 20S and 20Si proteasome, and for 26S, the buffer was supplemented with 40 mM KCl, 2 mM EDTA, 1 mM DTT, 100 µM ATP, and 50 µg/mL bovine serum albumin (BSA). The volume composition of each well of the 96-well plate was: 20 µL library, 160 µL assay buffer, and 20 µL 20S proteasome solution at a concentration of 1.07 × 10^−9 M. Absorbance or fluorescence measurements were performed on a FluoroStar OMEGA multimode microplate reader (BMG, Ortenberg, Germany). Absorbance increases were monitored at 410 nm. The excitation and emission wavelengths were 320 and 450 nm respectively, for the ABZ/ANB. Enzymatic hydrolysis of the peptide was performed in the assay buffer at 37 °C and continued over 60 min.
The procedures to determine the kinetic constants Km and kcat are described below. Increasing concentrations of substrate 1 ranged from 1 × 10^−6 to 2 × 10^−5 M. In parallel, a kinetic assay with the artificial activator SDS at 0.01% was also performed. The data were fitted to an allosteric plot using GraphPad prism v6.0 (GraphPad Software Inc., La Jolla, CA, USA). The specificity constants (kcat/ Km) were calculated from the kcat and Km values. Measurements were performed using a 20S proteasome concentration of 1.07 × 10^−9 M. Three to five measurements were performed for each compound dilution (the systematic error, defined as the standard deviation, never surpassed 20%). The initial hydrolysis rates were used as the amount of enzymatic activity for the tested compounds. All kinetic study details and kinetic parameters have been described elsewhere.

20S proteasome = assay: Inhibitory studies: cleavage of substrate 1 in the presence of selective proteasome inhibitors; format: biochemical, human; details: 30 min preincubation at 37 °C, 20S 1.07 × 10^−9 M, substrate 1.34 × 10^−5 M, triplicate
Source text: A black, 96-well flat-bottomed microplate (Brand GMBH, Wertheim, Germany) was used for the inhibitory studies. Two inhibitors, carfilzomib (a selective inhibitor of the β5 subunit of the 20S proteasome) and epoxomicin, were purchased from Merck (Darmstadt, Germany) and used at final concentrations of 1.15 × 10^−6 M and 5.0 × 10^−5 M, respectively. The β2 inhibitor, PR671A [20], and the β1 inhibitor, NCOO1 [21], were used at a concentration of 5 × 10^−6 M. These reagents were kindly provided by Alexei Kisselev from Dartmouth University (Dartmouth, NH, USA). The concentration of 20S proteasome was 1.07 × 10^−9 M. The buffered proteasome solution was mixed with 10 µL inhibitor solution. This mixture was incubated for 30 min at 37 °C. After this period, the substrate solution was added at a concentration of 1.34 × 10^−5 M, and the fluorescence was measured over time at 320 nm excitation and 450 nm emission wavelengths. All measurements were performed in triplicate.

[2] = test system: neutrophil-related proteases / neutrophil serine protease 4 (NSP4); details: ref [19], cited from earlier work
Source text: Recently, we established a new method for the selection and synthesis of artificial fluorogenic substrates composed of DAPEG residues (Figure 1). For the screening of 18 libraries, we created a series of compounds based on the neutrophil serine protease 4 (NSP4) substrate sequence (ABZ–X4–X3–X2–Arg–ANB–NH2) diversified in positions X4 to X2 with DAPEG, resulting in a total of almost 6000 compounds.

[3] = test system: trypsin-like subunit of the 20S proteasome; details: cited from earlier work; for selectivity for trypsin-like specificity: commercially available substrates, no reference given; for selectivity for trypsin-like specificity / selectivity for the trypsin subunit: introduction
Source text: Table 1 Overview of the fluorogenic substrates of the trypsin-like subunit of the 20S proteasome. | column: Km (µM); kcat (s^−1); kcat/Km (M^−1 s^−1) || The aim of this work is to develop a new substrate to assay the trypsin-like specificity of the human 20S proteasome that is created by DAPEG building blocks, which are N-substituted functionalized derivates of 3-diaminopropionic acid (Figure 1). The substrate preferences of the β2 subunit have been previously examined. Harris and coworkers described the development of new substrates selected via combinatorial library screening. The substrate peptides were labeled with 7-amino-4-carbamoylmethylcoumarin (ACC) as a reporter moiety, and a specific sequence of the β2 subunit, Ac–Glu– ...

[4] = test system: chymotrypsin subunit (β5) of the 20S proteasome in human urine; assay: Proteasome activity in human urine with the β5 substrate; format: biochemical
Method: All urine samples were purchased from St. Vincent de Paul Hospital in Gdynia, Poland (contract no. JN/777/R720/08.11.17). All methods and procedures were performed in accordance with this contract agreement. Participants were informed about the study and sample collection, and their written consent was collected. […] Therefore, the samples were considered unnamed. The samples of human urine were taken during mid-urination and kept for 48 h at −80 °C until required. All samples used for assay development were taken from healthy volunteers (n = 5), and oncological samples were obtained from patients diagnosed with bladder cancer (n = 8).
In parallel, the urine samples were analyzed using the previously developed substrate ABZ–Val–Val–Ser–Tyr–Ala–Met–Gly–Tyr(3-NO2)–NH2 [21] in two systems: one with the artificial activator SDS at 0.01% and the second without any SDS. The fluorescence of the system was recorded over time. The same conditions for excitation and emission were used as above. All measurements were performed in triplicate.
The resulting data were analyzed using Graphpad Prism version 6.0 software (GraphPad Software Inc., La Jolla, CA, USA). All fluorescent measurements were performed in triplicate and represented by the mean ± standard deviation (SD). A two-tailed Mann–Whitney test was applied for the statistical analysis (p < 0.0001).

CCCCCCCCCCCCOS(=O)(=O)[O-].[Na+] [SDS, sodium dodecyl sulfate]
effect on β2 subunit activity of the 20S proteasome [1]: not significantly altered

CC(C)C[C@H](NC(=O)[C@H](CCc1ccccc1)NC(=O)CN1CCOCC1)C(=O)N[C@@H](Cc1ccccc1)C(=O)N[C@@H](CC(C)C)C(=O)[C@@]1(C)CO1 [carfilzomib]
effect on cleavage of substrate 1 (20S proteasome; carfilzomib (β5) 1.15 × 10^−6 M): a slight activation of the cleavage rate

CC[C@H](C)[C@H](NC(=O)[C@H]([C@@H](C)CC)N(C)C(C)=O)C(=O)N[C@H](C(=O)N[C@@H](CC(C)C)C(=O)[C@@]1(C)CO1)[C@@H](C)O [epoxomicin]
effect on cleavage of substrate 1 (20S proteasome; epoxomicin (general inhibitor) 5.0 × 10^−5 M): proteolytic suppression of substrate 1

ABZ–Dap(O2(Cbz))–Dap(Cbz)–Dap(GO1)–Arg–ANB–NH2
specificity constant (kcat/Km) ([2]; NSP4 substrate-based library): 130000 M⁻¹ s⁻¹
selectivity towards neutrophil-related proteases [2]: high levels of selectivity

ABZ–Val–Val–Ser–GNF–Ala–Met–Gly–Tyr(3-NO2)–NH2
Km ([3]; ref [21]): 4.24 ± 0.87 µM
kcat ([3]; ref [21]): 8.41 ± 0.57 s⁻¹
kcat/Km ([3]; ref [21]): 1,983,100 ± 2754 M^−1 s^−1

ABZ–Val–Val–Ser–Tyr–Ala–Met–Gly–Tyr(3-NO2)–NH2 [previously developed substrate]
fluorescence increase, healthy samples ([4]; healthy urine, all systems (with and without SDS), n = 5): no visible fluorescence increase
bladder cancer samples with fluorescence increase ([4]; with SDS 0.01%, 8 bladder cancer samples, triplicate): seven systems (1–5, 7, and 8)
fluorescence increase rate, sample N° 6 ([4]; with SDS 0.01%, bladder cancer sample N° 6): insignificant
bladder cancer samples with visible fluorescence increase ([4]; without SDS, 8 bladder cancer samples, 320/450 nm, triplicate): 2 out of the 8

Ac-Leu-Arg-Arg-{AMC} [commercially available 20S proteasome substrate]
selectivity for trypsin-like specificity [3]: significant selectivity

Ac-[dR][hSer]TR-{ACC}
selectivity for the trypsin subunit ([3]; ref [18]): moderate selectivity at higher proteasome concentrations
Km ([3]; ref [18]): 9.43 ± 0.82 µM
kcat ([3]; ref [18]): 2.84 ± 0.22 s⁻¹
kcat/Km ([3]; ref [18]): 301,005 ± 28,471 M^−1 s^−1
kcat/Km ([3]; ref [18], listed as Ac–DArg–Hse–Thr–Arg–ACC): 301,005 M^−1 s^−1

Ac–βAla–Met(O)2–Thr–Arg–ACC
selectivity for the trypsin subunit ([3]; ref [18]): most selective
Km ([3]; ref [18]): 50.9 ± 2.99 µM
kcat ([3]; ref [18]): 2.23 ± 0.07 s⁻¹
kcat/Km ([3]; ref [18]): 43,790 ± 3233 M^−1 s^−1
kcat/Km ([3]; ref [18], listed as Ac–βAla–Met(O2)–Thr–Arg–ACC): 43,790 M^−1 s^−1

Boc-Leu-Arg-Arg-{AMC} [commercially available 20S proteasome substrate]
selectivity for trypsin-like specificity [3]: significant selectivity
kcat/Km ([3]; ref [22]): <500 M⁻¹ s⁻¹
